What was measured:
[1] = molecular target: T1, SYK kinase (Homo sapiens, UniProt P43405); experiment: SYK assay (OMNIA Kinase Assay, Invitrogen); type: biochemical; conditions: apparent Ki calculated from the IC50 using the Cheng-Prusoff equation; 1 mM ATP, 10 μM Peptide Substrate; read-out: SYK Activities: Ki
T1 construct: purchased Invitrogen, Carlsbad
Procedure, shortened: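 Reaction velocities were measured from kinetic fluorescence reads (360/485 nm, every 30 s over 30 min) of Mg2+-chelated SOX signal. Conditions were 1 mM ATP, 10 μM Omnia Tyr 7 peptide and 0.2 mM DTT at 30° C. Sigmoidal IC50 fits were converted to apparent Ki using Cheng-Prusoff.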

[2] = molecular target: LRRK2 (Homo sapiens, UniProt Q5S007); experiment: LRRK2 assay (LanthaScreen Eu Kinase Binding Assay); conditions: 5 nM LRRK2, 10 nM tracer 236, RT 1 h; read-out: LRRK2 Activites: IC50
LRRK2, sequence (Q5S007 970-2527 limits assumed): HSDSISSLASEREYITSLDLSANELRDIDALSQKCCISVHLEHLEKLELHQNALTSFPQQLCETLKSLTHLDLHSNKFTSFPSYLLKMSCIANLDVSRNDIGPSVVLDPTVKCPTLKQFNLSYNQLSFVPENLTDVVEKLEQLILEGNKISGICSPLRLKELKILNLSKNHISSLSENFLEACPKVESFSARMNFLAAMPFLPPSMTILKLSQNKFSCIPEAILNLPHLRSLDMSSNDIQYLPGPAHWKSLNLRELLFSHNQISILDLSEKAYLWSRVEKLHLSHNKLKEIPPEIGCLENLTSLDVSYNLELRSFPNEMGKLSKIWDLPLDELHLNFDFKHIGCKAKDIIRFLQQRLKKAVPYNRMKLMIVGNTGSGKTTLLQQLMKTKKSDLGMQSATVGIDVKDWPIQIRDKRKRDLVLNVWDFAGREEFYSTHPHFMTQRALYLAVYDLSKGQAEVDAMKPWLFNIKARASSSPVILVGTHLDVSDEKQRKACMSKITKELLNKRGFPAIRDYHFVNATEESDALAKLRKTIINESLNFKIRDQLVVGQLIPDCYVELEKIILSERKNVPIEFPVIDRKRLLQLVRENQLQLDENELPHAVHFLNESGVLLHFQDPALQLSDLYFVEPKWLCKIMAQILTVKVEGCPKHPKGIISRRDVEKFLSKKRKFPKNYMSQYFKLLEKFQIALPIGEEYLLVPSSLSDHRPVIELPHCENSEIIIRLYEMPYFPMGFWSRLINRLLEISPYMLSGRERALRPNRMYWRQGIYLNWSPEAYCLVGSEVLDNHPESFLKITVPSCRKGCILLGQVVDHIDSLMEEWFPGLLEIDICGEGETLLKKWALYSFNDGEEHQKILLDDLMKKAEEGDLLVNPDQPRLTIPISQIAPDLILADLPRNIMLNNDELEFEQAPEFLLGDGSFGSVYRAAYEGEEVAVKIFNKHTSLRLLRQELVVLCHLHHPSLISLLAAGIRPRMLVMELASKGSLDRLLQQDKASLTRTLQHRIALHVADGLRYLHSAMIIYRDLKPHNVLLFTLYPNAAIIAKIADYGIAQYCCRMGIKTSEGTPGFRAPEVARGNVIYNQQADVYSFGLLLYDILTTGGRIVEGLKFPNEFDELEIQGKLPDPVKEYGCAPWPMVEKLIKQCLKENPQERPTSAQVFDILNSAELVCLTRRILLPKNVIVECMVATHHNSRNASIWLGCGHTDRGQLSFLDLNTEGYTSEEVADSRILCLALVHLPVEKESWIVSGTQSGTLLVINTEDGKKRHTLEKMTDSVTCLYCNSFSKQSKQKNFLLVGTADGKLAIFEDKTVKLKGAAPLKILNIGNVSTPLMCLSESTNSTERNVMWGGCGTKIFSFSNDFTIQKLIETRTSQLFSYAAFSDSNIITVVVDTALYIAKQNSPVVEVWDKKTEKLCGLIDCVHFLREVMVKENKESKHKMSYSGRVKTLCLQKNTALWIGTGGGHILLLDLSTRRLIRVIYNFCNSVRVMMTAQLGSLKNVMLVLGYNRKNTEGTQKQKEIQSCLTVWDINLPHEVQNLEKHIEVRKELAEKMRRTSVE
From the text: Binding of the tracer to the kinase is detected using a europium-labeled anti-tag antibody, which binds to the kinase of interest. […] Binding of an inhibitor to the kinase competes for binding with the tracer, resulting in a loss of FRET. The fluorescence intensity ratio is directly proportional to the amount of peptide phosphorylation.
The inhibitor concentration was plotted versus the emission ratio to determine the IC50 using XLFit 5.0 (IDBS, Guildford) to fit to a sigmoidal dose response curve with a variable slope.

Row | SMILES | Ki [1] | IC50 [2]
1 | COCCOc1ccc(Nc2nc3ccc(OC)cc3c3cn[nH]c23)cc1 [Example #104, [4-(2-Methoxy-ethoxy)-phenyl]-(8-methoxy-3H-pyrazolo[3,4-c]quinolin-4-yl)-amine] | 10 to 100 nM | 100 to 1000 nM
2 | CCOc1ccc(Nc2nc3ccc(OC)cc3c3cn[nH]c23)cc1OC [Example #105, (4-Ethoxy-3-methoxy-phenyl)-(8-methoxy-3H-pyrazolo[3,4-c]quinolin-4-yl)-amine] | 10 to 100 nM | 100 to 1000 nM
3 | COc1ccc2nc(Nc3ccc(N4CCCC4=O)cc3)c3[nH]ncc3c2c1 [Example #106] | 100 to 1000 nM | 100 to 1000 nM
4 | COc1ccc2nc(Nc3ccc(N4CCSCC4)cc3)c3[nH]ncc3c2c1 [Example #107, (8-Methoxy-3H-pyrazolo[3,4-c]quinolin-4-yl)-(4-thiomorpholin-4-yl-phenyl)-amine] | 10 to 100 nM | 100 to 1000 nM
5 | COc1ccc2nc(Nc3ccc4oc(=O)[nH]c4c3)c3[nH]ncc3c2c1 [Example #108, 5-(8-Methoxy-3H-pyrazolo[3,4-c]quinolin-4-ylamino)-3H-benzooxazol-2-one] | 100 to 1000 nM | 100 to 1000 nM
6 | COc1ccc2nc(Nc3ccc4c(c3)NCCO4)c3[nH]ncc3c2c1 [Example #109, (3,4-Dihydro-2H-benzo[1,4]oxazin-6-yl)-(8-methoxy-3H-pyrazolo[3,4-c]quinolin-4-yl)-amine] | 10 to 100 nM | 10 to 100 nM
7 | COc1ccc2nc(Nc3ccc(N4CCS(=O)(=O)CC4)cc3)c3n[nH]cc3c2c1 [Example #111, [4-(1,1-Dioxo-1lambda-6-thiomorpholin-4-yl)-phenyl]-(8-methoxy-3H-pyrazolo[3,4-c]quinolin-4-yl)-amine] | 10 to 100 nM | 10 to 100 nM
8 | COc1ccc2nc(Nc3cccc(O)c3)c3[nH]ncc3c2c1 [Example #113, 3-(8-Methoxy-3H-pyrazolo[3,4-c]quinolin-4-ylamino)-phenol] | 10 to 100 nM | 100 to 1000 nM
9 | CCOc1ccc(Nc2nc3ccc(OC)cc3c3cn[nH]c23)cc1OCC [Example #114, (3,4-Diethoxy-phenyl)-(8-methoxy-3H-pyrazolo[3,4-c]quinolin-4-yl)-amine] | 100 to 1000 nM | 100 to 1000 nM
10 | Brc1ccc2nc(Nc3ccc(N4CCOCC4)cc3)c3n[nH]cc3c2c1 [Example #115, (8-Bromo-2H-pyrazolo[3,4-c]quinolin-4-yl)-(4-morpholin-4-yl-phenyl)-amine] | 10 to 100 nM | 100 to 1000 nM
11 | COc1ccc2nc(Nc3ccc4[nH]c(=O)oc(=O)c4c3)c3n[nH]cc3c2c1 [Example #117, 6-(8-Methoxy-2H-pyrazolo[3,4-c]quinolin-4-ylamino)-1H-benzo[d][1,3]oxazine-2,4-dione] | 100 to 1000 nM | 100 to 1000 nM
12 | Brc1ccc2nc(Nc3cc[nH]n3)c3n[nH]cc3c2c1 [Example #119, (8-Bromo-2H-pyrazolo[3,4-c]quinolin-4-yl)-(1H-pyrazol-3-yl)-amine] | 100 to 1000 nM | 100 to 1000 nM
13 | COc1ccc2nc(Nc3ccc(F)c(OC)c3)c3n[nH]cc3c2c1 [Example #124, (4-Fluoro-3-methoxy-phenyl)-(8-methoxy-2H-pyrazolo[3,4-c]quinolin-4-yl)-amine] | 10 to 100 nM | 100 to 1000 nM
14 | COc1ccc2nc(Nc3ccc(OC)c(F)c3)c3n[nH]cc3c2c1 [Example #125, (3-Fluoro-4-methoxy-phenyl)-(8-methoxy-2H-pyrazolo[3,4-c]quinolin-4-yl)-amine] | 10 to 100 nM | 100 to 1000 nM
15 | COc1cc2nc(Nc3ccc(N(C)C)cc3)c3n[nH]cc3c2cc1OC [Example #135, N-(7,8-Dimethoxy-2H-pyrazolo[3,4-c]quinolin-4-yl)-N′,N′-dimethyl-benzene-1,4-diamine] | 10 to 100 nM | 100 to 1000 nM
16 | COc1ccc2nc(Nc3ccc4c(c3)c(C)c(C)n4C)c3n[nH]cc3c2c1 [Example #138, (8-Methoxy-2H-pyrazolo[3,4-c]quinolin-4-yl)-(1,2,3-trimethyl-1H-indol-5-yl)-amine] | 100 to 1000 nM | 100 to 1000 nM
17 | COc1cc2nc(Nc3ccc4c(c3)NCCO4)c3n[nH]cc3c2cc1OC [Example #151, (3,4-Dihydro-2H-benzo[1,4]oxazin-6-yl)-(7,8-dimethoxy-2H-pyrazolo[3,4-c]quinolin-4-yl)-amine] | 10 to 100 nM | 100 to 1000 nM
18 | COc1ccc2nc(Nc3ccc(Cc4ccncc4)cc3)c3n[nH]cc3c2c1 [Example #161, (8-Methoxy-2H-pyrazolo[3,4-c]quinolin-4-yl)-(4-pyridin-4-ylmethyl-phenyl)-amine] | 10 to 100 nM | 10 to 100 nM
19 | COc1cccc2c1nc(Nc1ccc3c(c1)NCCO3)c1n[nH]cc12 [Example #168, (3,4-Dihydro-2H-benzo[1,4]oxazin-6-yl)-(6-methoxy-2H-pyrazolo[3,4-c]quinolin-4-yl)-amine] | 10 to 100 nM | 100 to 1000 nM

Row | SMILES | Ki [1] | IC50 [2]
20 | COc1cccc2c1nc(Nc1ccc(N3CCOCC3)cc1)c1[nH]ncc12 [Example #170, (6-Methoxy-2H-pyrazolo[3,4-c]quinolin-4-yl)-(4-morpholin-4-yl-phenyl)-amine] | 10 to 100 nM | 100 to 1000 nM
21 | COc1ccc2c(c1)nc(Nc1ccc3c(c1)NCCO3)c1n[nH]cc12 [Example #173, (3,4-Dihydro-2H-benzo[1,4]oxazin-6-yl)-(7-methoxy-2H-pyrazolo[3,4-c]quinolin-4-yl)-amine] | 10 to 100 nM | 100 to 1000 nM
22 | COc1ccc2c(c1)nc(Nc1ccc(OC)c(OC)c1)c1n[nH]cc12 [Example #175, (3,4-Dimethoxy-phenyl)-(7-methoxy-2H-pyrazolo[3,4-c]quinolin-4-yl)-amine] | 10 to 100 nM | 100 to 1000 nM
23 | COc1ccc2c(c1)nc(Nc1ccc(N3CCOCC3)cc1)c1n[nH]cc12 [Example #177, (7-Methoxy-2H-pyrazolo[3,4-c]quinolin-4-yl)-(4-morpholin-4-yl-phenyl)-amine] | < 10 nM | 100 to 1000 nM
24 | COc1ccc2nc(Nc3ccc(N4CCOCC4)c(F)c3)c3n[nH]cc3c2c1 [Example #181, (3-Fluoro-4-morpholin-4-yl-phenyl)-(8-methoxy-2H-pyrazolo[3,4-c]quinolin-4-yl)-amine] | 10 to 100 nM | 100 to 1000 nM
25 | COc1ccc2nc(Nc3ccc4c(c3)n(C)c(=O)n4C)c3n[nH]cc3c2c1 [Example #189, 5-(8-Methoxy-2H-pyrazolo[3,4-c]quinolin-4-ylamino)-1,3-dimethyl-1,3-dihydro-benzoimidazol-2-one] | 10 to 100 nM | 100 to 1000 nM
26 | COc1ccc2nc(Nc3ccc4c(c3)NCCC4)c3n[nH]cc3c2c1 [Example #196, (8-Methoxy-2H-pyrazolo[3,4-c]quinolin-4-yl)-(1,2,3,4-tetrahydro-quinolin-7-yl)-amine] | 10 to 100 nM | 100 to 1000 nM
27 | COc1cccc2nc(Nc3ccc4c(c3)NCCO4)c3n[nH]cc3c12 [Example #198, (3,4-Dihydro-2H-benzo[1,4]oxazin-6-yl)-(9-methoxy-2H-pyrazolo[3,4-c]quinolin-4-yl)-amine] | 100 to 1000 nM | 10 to 100 nM
28 | COc1ccc(Nc2nc3cccc(OC)c3c3c[nH]nc23)cc1OC [Example #200, (3,4-Dimethoxy-phenyl)-(9-methoxy-2H-pyrazolo[3,4-c]quinolin-4-yl)-amine] | 100 to 1000 nM | 100 to 1000 nM
29 | COc1ccc(Nc2nc3ccccc3c3c(C)[nH]nc23)cc1OC [Example #207, (3,4-Dimethoxy-phenyl)-(1-methyl-2H-pyrazolo[3,4-c]quinolin-4-yl)-amine] | 10 to 100 nM | 100 to 1000 nM
30 | COc1ccc(Nc2nc3ccc(C#N)cc3c3c[nH]nc23)cc1OC [Example #216, 4-(3,4-Dimethoxy-phenylamino)-2H-pyrazolo[3,4-c]quinoline-8-carbonitrile] | 10 to 100 nM | 100 to 1000 nM
31 | COc1ccc2nc(Nc3ccc4c(c3)OCC(=O)N4)c3[nH]ncc3c2c1 [Example #224, 7-(8-Methoxy-3H-pyrazolo[3,4-c]quinolin-4-ylamino)-4H-benzo[1,4]oxazin-3-one] | 10 to 100 nM | 100 to 1000 nM
32 | COc1ccc2nc(Nc3ccc(C)cc3)c3n[nH]cc3c2c1 [Example #244, (8-Methoxy-2H-pyrazolo[3,4-c]quinolin-4-yl)-p-tolyl-amine] | 10 to 100 nM | 100 to 1000 nM
33 | COc1cccc2c1nc(Nc1ccc(N3CCSCC3)cc1)c1n[nH]cc12 [Example #247, (6-Methoxy-2H-pyrazolo[3,4-c]quinolin-4-yl)-(4-thiomorpholin-4-yl-phenyl)-amine] | 10 to 100 nM | 100 to 1000 nM
34 | COc1cccc2c1nc(Nc1ccc3c(c1)NC(=O)CO3)c1n[nH]cc12 [Example #250, 6-((6-methoxy-2H-pyrazolo[3,4-c]quinolin-4-yl)amino)-2H-benzo[b][1,4]oxazin-3(4H)-one] | 10 to 100 nM | 100 to 1000 nM
35 | COc1ccc2c(c1)nc(Nc1ccc3[nH]ncc3c1)c1n[nH]cc12 [Example #256, (1H-Indazol-5-yl)-(7-methoxy-2H-pyrazolo[3,4-c]quinolin-4-yl)-amine] | 10 to 100 nM | 100 to 1000 nM
36 | COc1cccc2c1nc(Nc1ccc(C)cc1)c1n[nH]cc12 [Example #274, (6-Methoxy-2H-pyrazolo[3,4-c]quinolin-4-yl)-p-tolyl-amine] | 10 to 100 nM | 100 to 1000 nM
37 | COc1ccc2nc(Nc3ccc(OCC(=O)O)c(OC)c3)c3n[nH]cc3c2c1 [Example #279, 2-(2-methoxy-4-((8-methoxy-2H-pyrazolo[3,4-c]quinolin-4-yl)amino)phenoxy)acetic-acid] | 100 to 1000 nM | 100 to 1000 nM
